System: type III secretion in S. typhimurium
Assay: microbe, parasite or virus in culture
Format: cell-based, Salmonella enterica serovar Typhimurium
Conditions: for inhibition at 33 µM / inhibition at 330 µM / inhibition at 3.3 µM: read-out: % inhibition of SipA secretion; for % Secretion: type III secretion in S. typhimurium, SipA secretion by Western blot
[1] = Salmonella enterica, TYPHIMURIUM

SMILES: COc1cc(/C=C2\S/C(=N\c3ccccc3)N(C(C(=O)N[C@@H](Cc3ccc(O)cc3)C(N)=O)C(C)C)C2=O)cc(OC)c1O (single isomer, unassigned) [compound 69]
- inhibition at 33 µM [1]: 32%
- inhibition at 330 µM [1]: 97%

SMILES: COc1cc(/C=C2\S/C(=N\c3ccccc3)N([C@@H](C)C(=O)N[C@@H](CCCNC(=N)N)C(N)=O)C2=O)cc(OC)c1O [Compound 2]
- SipA detected in the supernate (3.8 μM, Western blot): minimal SipA was detected
- inhibition at 38 µM (Salmonella enterica, TYPHIMURIUM, read-out: inhibition of detectable secreted SipA): 100%
- % Secretion: 0 ± 0%

SMILES: COc1ccc(N2C(=O)/C(=C/c3cc(OC)c(O)c(OC)c3)S/C2=N\c2ccccc2)cc1 [Compound 3]
- % Secretion: 0 ± 0%

SMILES: COc1cc(/C=C2\S/C(=N\c3ccccc3)NC2=O)cc(OC)c1O [Compound 4]
- % Secretion: 9 ± 6%

SMILES: COc1cc(/C=C2\SC(=N)N(c3ccccc3)C2=O)cc(OC)c1O [Compound 5]
- % Secretion: 81.2 ± 0%

SMILES: COc1cc(/C=C2\SC(=N)NC2=O)cc(OC)c1O [Compound 6]
- % Secretion: 64 ± 4%

SMILES: O=C1/C(=C/c2ccccc2)S/C(=N\c2ccccc2)N1c1ccccc1 [Compound 7]
- % Secretion: 90 ± 2%

SMILES: O=C1CS/C(=N\c2ccccc2)N1c1ccccc1 [Compound 8]
- % Secretion: 62 ± 3%

SMILES: COc1cc(CC2SC(=N)NC2=O)cc(OC)c1O (stereo not drawn) [Compound 9]
- % Secretion: 72 ± 0%

SMILES: COc1cc(/C=C2\S/C(=N\c3ccccc3)N(CCCCCCN)C2=O)cc(OC)c1O [compound 45, (2Z,5Z)-3-(6-aminohexyl)-5-(4-hydroxy-3,5-dimethoxybenzylidene)-2-(phenylimino)-thiazolidin-4-one]
- inhibition at 3.3 µM [1]: 12%
- inhibition at 33 µM [1]: 42%
- inhibition at 330 µM [1]: 95%

SMILES: COc1cc(/C=C2\S/C(=N\c3ccc(CN)cc3)N(c3ccccc3)C2=O)cc(OC)c1O [compound 46, (2Z,5Z)-2-(4-(aminomethyl)phenylimino)-5-(4-hydroxy-3,5-dimethoxybenzyldene)-3-phenylthiazolidin-4-one]
- % inhibition of SipA secretion (3.3 μM, Western blot): 7%
- % inhibition of SipA secretion (33 μM, Western blot): 16%
- % inhibition of SipA secretion (330 μM, Western blot): 85%

SMILES: COc1cc(/C=C2\S/C(=N\c3ccc(CN)cc3)N(c3ccccc3)C2=O)cc(OC)c1O [compound 47, (2Z,5Z)-3-(4-(aminomethyl)phenylimino)-5-(4-hydroxy-3,5-dimethoxybenzyldene)-2-phenylthiazolidin-4-one]
- % inhibition of SipA secretion (3.3 μM, Western blot): 8%
- % inhibition of SipA secretion (33 μM, Western blot): 35%
- % inhibition of SipA secretion (330 μM, Western blot): 100%

SMILES: COc1cc(/C=C2\S/C(=N\c3ccccc3)N([C@@H](C)C(=O)N[C@@H](C)C(N)=O)C2=O)cc(OC)c1O [compound 49, (S)-N-((S)-1-amino-1-oxopropan-2-yl)-2-((2Z,5Z)-5-(4-hydroxy-3,5-dimethoxybenzylidene)-4-oxo-2-(phenylimino)thiazolidin-3-yl)propanamide]
- inhibition at 33 µM [1]: 26%
- inhibition at 330 µM [1]: 94%

SMILES: COc1cc(/C=C2\S/C(=N\c3ccccc3)N([C@@H](C)C(=O)N[C@@H](Cc3ccc(O)cc3)C(N)=O)C2=O)cc(OC)c1O [compound 50, (S)-N-((S)-1-amino-3-(4-hydroxyphenyl)-1-oxopropan-2-yl)-2-((2Z,5Z)-5-(4-hydroxy-3,5-dimethoxybenzylidene)-4-oxo-2-(phenylimino)thiazolidin-3-yl)propanamide]
- inhibition at 330 µM [1]: 90%

SMILES: COc1cc(/C=C2\S/C(=N\c3ccccc3)N(C(C)C(=O)N[C@@H](Cc3c[nH]c4ccccc34)C(N)=O)C2=O)cc(OC)c1O (stereo partly drawn) [compound 51, N-((S)-1-amino-3-(1H-indol-3-yl)-1-oxopropan-2-yl)-2-((2Z,5Z)-5-(4-hydroxy-3,5-dimethoxybenzylidene)-4-oxo-2-(phenylimino)thiazolidin-3-yl)propanamide]
- inhibition at 330 µM [1]: 100%

SMILES: COc1cc(/C=C2\S/C(=N\c3ccccc3)N([C@H](C)C(=O)N[C@@H](Cc3c[nH]c4ccccc34)C(N)=O)C2=O)cc(OC)c1O [compound 52, (R)-N-((S)-1-amino-3-(1H-indol-3-yl)-1-oxopropan-2-yl)-2-((2Z,5Z)-5-(4-hydroxy-3,5-dimethoxybenzylidene)-4-oxo-2-(phenylimino)thiazolidin-3-yl)propanamide]
- inhibition at 330 µM [1]: 100%

SMILES: COc1cc(/C=C2\S/C(=N\c3ccccc3)N([C@@H](C)C(=O)N[C@@H](CCCN)C(N)=O)C2=O)cc(OC)c1O [compound 54, (S)-5-amino-2-((S)-2-((2Z,5Z)-5-(4-hydroxy-3,5-dimethoxybenzylidene)-4-oxo-2-(phenylimino)thiazolidin-3-yl)propanamido)pentanamide]
- inhibition at 330 µM [1]: 94%

SMILES: COc1cc(/C=C2\S/C(=N\c3ccccc3)N([C@@H](C)C(=O)N[C@@H](CCCNC(=N)N)C(N)=O)C2=O)cc(OC)c1O [compound 56, (S)-5-Guanidino-2-((S)-2-((2Z,5Z)-5-(4-hydroxy-3,5-dimethoxybenzylidene)-4-oxo-2-(phenylimino)thiazolidin-3-yl)propanamido)pentanamide]
- inhibition at 33 µM [1]: 1%
- inhibition at 330 µM [1]: 100%

SMILES: COc1cc(/C=C2\S/C(=N\c3ccccc3)N(CC(=O)O)C2=O)cc(OC)c1O [compound 57, 2-((2Z,5Z)-5-(4-hydroxy-3,5-dimethoxybenzylidene)-4-oxo-2-(phenylimino)thiazolidin-3-yl)acetic acid]
- inhibition at 3.3 µM [1]: 51%
- inhibition at 330 µM [1]: 100%

SMILES: COc1cc(/C=C2\S/C(=N\c3ccccc3)N(CCCC(=O)OC(C)(C)C)C2=O)cc(OC)c1O [compound 60, t-Butyl-4-((2Z,5Z)-5-(4-hydroxy-3,5-dimethoxybenzylidene)-4-oxo-2-(phenylimino)thiazolidin-3-yl)butanoate]
- inhibition at 3.3 µM [1]: 35%
- inhibition at 330 µM [1]: 90%

SMILES: COc1cc(/C=C2\S/C(=N\c3ccccc3)N(CCCC(=O)O)C2=O)cc(OC)c1O [compound 61, 4-((2Z,5Z)-5-(4-hydroxy-3,5-dimethoxybenzylidene)-4-oxo-2-(phenylimino)thiazolidin-3-yl)butanoic acid]
- inhibition at 3.3 µM [1]: 70%
- inhibition at 330 µM [1]: 74%

SMILES: COc1cc(/C=C2\S/C(=N\c3ccccc3)N([C@H](C)C(=O)N[C@@H](CCCN)C(N)=O)C2=O)cc(OC)c1O [compound 84, (S)-5-amino-2-((R)-2-((2Z,5Z)-5-(4-hydroxy-3,5-dimethoxybenzylidene)-4-oxo-2-(phenylimino)thiazolidin-3-yl)propanamido)pentanamide]
- inhibition at 3.3 µM [1]: 5%
- inhibition at 330 µM [1]: 99%

SMILES: COc1cc(/C=C2\S/C(=N\c3ccccc3)N([C@H](C)C(=O)N[C@@H](CCCNC(=N)N)C(N)=O)C2=O)cc(OC)c1O [compound 85, (S)-5-guanidino-2-((R)-2-((2Z,5Z)-5-(4-hydroxy-3,5-dimethoxybenzylidene)-4-oxo-2-(phenylimino)thiazolidin-3-yl)propanamido)pentanamide]
- inhibition at 33 µM [1]: 31%
- inhibition at 330 µM [1]: 99%

SMILES: COc1cc(/C=C2\S/C(=N\c3ccccc3)N([C@@H](CCCN)C(=O)N[C@@H](C)C(N)=O)C2=O)cc(OC)c1O [compound 86]
- % inhibition of SipA secretion (3.3 μM, Western blot): 19%
- % inhibition of SipA secretion (33 μM, Western blot): 46%
- % inhibition of SipA secretion (330 μM, Western blot): 100%

SMILES: COc1cc(/C=C2\S/C(=N\c3ccccc3)N([C@@H](CCCNC(=N)N)C(=O)N[C@@H](C)C(N)=O)C2=O)cc(OC)c1O [compound 87, (S)-N-((S)-1-amino-1-oxopropan-2-yl)-5-guanidino-2-((2Z,5Z)-5-(4-hydroxy-3,5-dimethoxybenzylidene)-4-oxo-2-(phenylimino)thiazolidin-3-yl)pentanamide]
- inhibition at 3.3 µM [1]: 0%
- inhibition at 33 µM [1]: 38%
- inhibition at 330 µM [1]: 100%

Source: patent publication US8252940B2, “5-substituted-2-imino-thiazolidinone compounds and their use as inhibitors of bacterial infection” (University of Washington, priority 2008, dated 2012)
